Assay results from patent US20260274895A1, “DE NOVO DESIGNED MEMBRANE-TRAVERSING AND ORALLY BIOAVAILABLE MACROCYCLES” (UNIVERSITY OF WASHINGTON, priority 2022, published 2026).
Where a SMILES comes first, the peptide text is derived from it. [ ]: non-standard residue; d: D form. NMeF = CN[C@@H](Cc1ccccc1)C(=O)O; dNMeF = CN[C@H](Cc1ccccc1)C(=O)O; NMeL = CN[C@@H](CC(C)C)C(=O)O; dNMeL = CN[C@H](CC(C)C)C(=O)O; dNMeV = CN[C@@H](C(=O)O)C(C)C; NMeM = CN[C@@H](CCSC)C(=O)O; NMeV = CN[C@H](C(=O)O)C(C)C; NMeA = CN[C@@H](C)C(=O)O; dNMeA = CN[C@H](C)C(=O)O

Conditions: for PAMPA_Papp_Avg (apparent permeability): PAMPA

Structure (SMILES)	PAMPA_Papp_Avg (apparent permeability) [×10⁻⁶ cm/s]	membrane permeability in PAMPA (in words)
CC[C@H](C)[C@@H]1NC(=O)[C@H](Cc2ccccc2)N(C)C(=O)[C@H]2CCCN2C(=O)[C@H]([C@@H](C)CC)NC(=O)[C@H](C(C)C)NC(=O)[C@@H](C)NC(=O)[C@H]2CCCN2C1=O [Design D7.9, VIp*FIpa] (cyclo(I[dP][NMeF]I[dP][dA]V))	7.09	
CC[C@@H](C)[C@H]1NC(=O)[C@H](Cc2ccccc2)N(C)C(=O)[C@@H](CC(C)C)N(C)C(=O)[C@H](C(C)C)NC(=O)[C@H](C)NC(=O)[C@@H]2CCCN2C(=O)[C@H](CC(C)C)N(C)C(=O)[C@@H](Cc2ccccc2)N(C)C(=O)[C@H](C)N(C)C(=O)[C@H](C)N(C)C1=O [Design D10.56, *f*LPAV*l*Fi*A*A] (cyclo(AV[dNMeL][NMeF][dI][NMeA][NMeA][dNMeF][NMeL]P))	9.02	
CSCC[C@H]1C(=O)N(C)[C@H](C)C(=O)N[C@H](CC(C)C)C(=O)N2CCC[C@@H]2C(=O)N2CCC[C@H]2C(=O)N[C@@H](CC(C)C)C(=O)N2CCC[C@H]2C(=O)N2CCC[C@@H]2C(=O)N[C@H](C(C)C)C(=O)N1C [Design D9.24, pv*M*alpPLP] (cyclo(LP[dP][dV][NMeM][dNMeA][dL][dP]P))	0.0869	
CC[C@@H](C)[C@H]1NC(=O)[C@@H](Cc2ccccc2)NC(=O)[C@@H]2CCCN2C(=O)[C@@H]([C@H](C)CC)NC(=O)[C@@H](Cc2ccccc2)NC(=O)[C@@H]2CCCN2C1=O [Design D6.1, iPfiPf] (cyclo(P[dF][dI]P[dF][dI]))	3.34	
CC(C)C[C@H]1NC(=O)[C@@H]2CCCN2C(=O)[C@@H]2CCCN2C(=O)[C@@H](C)NC(=O)[C@@H](Cc2ccccc2)N(C)C(=O)[C@H]2CCCN2C1=O [Design D6.4, p*faPPl] (cyclo(PP[dL][dP][dNMeF][dA]))	13.9	
CC[C@@H](C)[C@H]1NC(=O)[C@H]2CCCN2C(=O)[C@H]([C@@H](C)CC)NC(=O)[C@H](CC(C)C)N(C)C(=O)[C@H]2CCCN2C(=O)[C@@H]2CCCN2C(=O)[C@H](Cc2ccccc2)N(C)C(=O)[C@H](Cc2ccccc2)NC(=O)[C@H]([C@@H](C)CC)NC1=O [Design D9.13, piIF*FPp*LI] (cyclo(F[NMeF]P[dP][NMeL]I[dP][dI]I))	3.37	
CC(C)C[C@H]1C(=O)N2CCC[C@@H]2C(=O)N[C@@H](Cc2ccccc2)C(=O)N2CCC[C@H]2C(=O)N(C)[C@H](C(C)C)C(=O)N[C@H](Cc2ccccc2)C(=O)N1C [Design D6.10, *vf*LpFP] (cyclo(FP[dNMeV][dF][NMeL][dP]))	11.6	
CC(C)C[C@@H]1C(=O)N[C@H](C(C)C)C(=O)N[C@H](C)C(=O)N2CCC[C@@H]2C(=O)N(C)[C@H](CC(C)C)C(=O)N[C@H](C(C)C)C(=O)N[C@H](C)C(=O)N2CCC[C@@H]2C(=O)N1C [Design D8.31, ap*lvap*lv] (cyclo([dA][dP][dNMeL][dV][dA][dP][dNMeL][dV]))		membrane permeable
CC(C)C[C@@H]1C(=O)N(C)[C@@H](CC(C)C)C(=O)N2CCC[C@@H]2C(=O)N[C@H](CC(C)C)C(=O)N[C@H](C)C(=O)N2CCC[C@@H]2C(=O)N2CCC[C@H]2C(=O)N[C@@H](C)C(=O)N[C@H](Cc2ccccc2)C(=O)N[C@H](CC(C)C)C(=O)N[C@@H](C(C)C)C(=O)N1C (single isomer, unassigned) [Design D11.9.p2, V*l*LplapPAfl]	2.09	
CC(C)C[C@@H]1C(=O)N[C@H](C)C(=O)N(C)[C@H](CC(C)C)C(=O)N2CCC[C@@H]2C(=O)N[C@H](CC(C)C)C(=O)N[C@@H](C)C(=O)N[C@H](CC(C)C)C(=O)N2CCC[C@@H]2C(=O)N1C [Design D8.25, lp*la*lplA] (cyclo(A[dL][dP][dNMeL][dA][dNMeL][dP][dL]))	0.824	
CC(C)C[C@@H]1NC(=O)[C@@H]2CCCN2C(=O)[C@H]2CCCN2C(=O)[C@@H](C)N(C)C(=O)[C@@H](CC(C)C)N(C)C(=O)[C@H](C(C)C)NC(=O)[C@@H](C)N(C)C(=O)[C@H]2CCCN2C(=O)[C@@H]2CCCN2C1=O [Design D9.22, p*aV*l*apPLP] (cyclo(LP[dP][dNMeA]V[dNMeL][dNMeA][dP]P))	0.189	
CC(C)C[C@@H]1NC(=O)[C@H]2CCCN2C(=O)[C@@H]2CCCN2C(=O)[C@H](CC(C)C)NC(=O)[C@@H](CC(C)C)NC(=O)[C@@H](C)N(C)C(=O)[C@@H](C)N(C)C(=O)[C@@H](C(C)C)NC1=O [Design D8.6, LPpLv*a*al] (cyclo(LP[dP]L[dV][dNMeA][dNMeA][dL]))	3.35	
CC(C)C[C@@H]1NC(=O)[C@@H](CC(C)C)NC(=O)[C@H]2CCCN2C(=O)[C@@H]2CCCN2C(=O)[C@@H](CC(C)C)NC(=O)[C@@H](CC(C)C)N(C)C(=O)[C@@H]2CCCN2C1=O [Design D7.5, LP*llPpl] (cyclo(LP[dNMeL][dL]P[dP][dL]))	6.64	
CC(C)C[C@@H]1C(=O)N(C)[C@H](Cc2ccccc2)C(=O)N(C)[C@@H](CC(C)C)C(=O)N[C@H](C(C)C)C(=O)N[C@H](C)C(=O)N2CCC[C@@H]2C(=O)N2CCC[C@H]2C(=O)N[C@H](C)C(=O)N1C [Design D8.20, Pa*l*f*Lvap] (cyclo([dA][dNMeL][dNMeF][NMeL][dV][dA][dP]P))	1.08	
CC[C@@H](C)[C@H]1NC(=O)[C@@H](CC(C)C)NC(=O)[C@H](C(C)C)NC(=O)[C@@H](CC(C)C)N(C)C(=O)[C@@H]2CCCN2C(=O)[C@H](C)NC(=O)[C@H](CC(C)C)N(C)C(=O)[C@H]2CCCN2C(=O)[C@H](C)N(C)C(=O)[C@@H](CC(C)C)N(C)C(=O)[C@@H]2CCCN2C1=O [Design D11.5, AP*lVliP*l*Ap*L] (cyclo(AP[dNMeL]V[dL][dI]P[dNMeL][NMeA][dP][NMeL]))	2.81	
CC(C)C[C@@H]1C(=O)N[C@@H](C(C)C)C(=O)N[C@@H](C)C(=O)N2CCC[C@H]2C(=O)N2CCC[C@@H]2C(=O)N[C@@H](C(C)C)C(=O)N[C@@H](C)C(=O)N(C)[C@@H](CC(C)C)C(=O)N1C [Design D8.22, APpVA*L*lV] (cyclo(A[NMeL][dNMeL]VAP[dP]V))	0.215	
CC[C@@H](C)[C@H]1NC(=O)[C@H](CC(C)C)NC(=O)[C@@H](CC(C)C)NC(=O)[C@H](C(C)C)NC(=O)[C@@H](Cc2ccccc2)N(C)C(=O)[C@@H]2CCCN2C(=O)[C@@H](CC(C)C)NC(=O)[C@H](CC(C)C)N(C)C(=O)[C@H]2CCCN2C1=O [Design D9.3, Lip*LlP*fVl] (cyclo(L[dI][dP][NMeL][dL]P[dNMeF]V[dL]))	2.33	
CC(C)C[C@@H]1C(=O)N[C@H](CC(C)C)C(=O)N2CCC[C@@H]2C(=O)N2CCC[C@@H]2C(=O)N(C)[C@@H](C)C(=O)N[C@H](Cc2ccccc2)C(=O)N[C@@H](C)C(=O)N(C)[C@@H](CC(C)C)C(=O)N1C [Design D8.10, pp*AfA*L*ll] (cyclo(A[NMeL][dNMeL][dL][dP][dP][NMeA][dF]))	1.23	
CC(C)[C@@H]1C(=O)N[C@@H](Cc2ccccc2)C(=O)N2CCC[C@H]2C(=O)N(C)[C@H](Cc2ccccc2)C(=O)N[C@H](C)C(=O)N2CCC[C@H]2C(=O)N1C (single isomer, unassigned) [Design D6.8.p2, *faP*vFP]	1.77	
CC[C@H](C)[C@@H]1NC(=O)[C@H](C(C)C)N(C)C(=O)[C@H]2CCCN2C(=O)[C@H]([C@@H](C)CC)NC(=O)[C@@H](CC(C)C)N(C)C(=O)[C@@H](C)NC(=O)[C@@H]2CCCN2C(=O)[C@H]2CCCN2C(=O)[C@H](CC(C)C)NC(=O)[C@@H](Cc2ccccc2)NC(=O)[C@H](CC(C)C)NC(=O)[C@H]2CCCN2C1=O [Design D12.3, p*VIpLfLpPa*lI] (cyclo([dA][dNMeL]I[dP][NMeV]I[dP]L[dF]L[dP]P))	0.789	
CC(C)C[C@@H]1NC(=O)[C@@H](CC(C)C)N(C)C(=O)[C@@H](CC(C)C)N(C)C(=O)[C@@H](CC(C)C)N(C)C(=O)[C@H](CC(C)C)NC(=O)[C@@H]2CCCN2C(=O)[C@H]2CCCN2C(=O)[C@H](Cc2ccccc2)NC1=O [SEQ ID NO 47, FpPL*l*l*lL] (cyclo(L[dNMeL][dNMeL][dNMeL]LF[dP]P))	1.27	
CC[C@H](C)[C@@H]1NC(=O)[C@@H](C(C)C)NC(=O)[C@@H](CC(C)C)N(C)C(=O)[C@H]2CCCN2C(=O)[C@@H](CC(C)C)NC(=O)[C@@H](CC(C)C)N(C)C(=O)[C@H](CC(C)C)NC(=O)[C@H]2CCCN2C(=O)[C@H](C)N(C)C(=O)[C@H]2CCCN2C1=O [Design D10.41, p*lvIp*ApL*ll] (cyclo(I[dP][NMeA][dP]L[dNMeL][dL][dP][dNMeL][dV]))	5.69	
CC[C@@H](C)[C@H]1NC(=O)[C@@H]2CCCN2C(=O)[C@@H](CC(C)C)N(C)C(=O)[C@@H](C(C)C)NC(=O)[C@@H]2CCCN2C(=O)[C@@H](CC(C)C)N(C)C(=O)[C@H](C)N(C)C(=O)[C@@H](C)NC1=O [Design D8.18, ia*A*lPv*lP] (cyclo([NMeA][dNMeL]P[dV][dNMeL]P[dI][dA]))	1.04	
CC[C@H](C)[C@@H]1NC(=O)[C@@H](Cc2ccccc2)NC(=O)[C@@H](C)NC(=O)[C@@H](C(C)C)NC(=O)[C@H](CCSC)NC(=O)[C@@H]2CCCN2C(=O)[C@H]2CCCN2C(=O)[C@@H]2CCCN2C(=O)[C@@H](C)N(C)C(=O)[C@@H](CC(C)C)N(C)C1=O [Design D10.45, vafI*l*aPpPM] (cyclo(M[dV][dA][dF]I[dNMeL][dNMeA]P[dP]P))	0.487	
CC(C)C[C@@H]1NC(=O)[C@H](C(C)C)NC(=O)[C@@H](CC(C)C)N(C)C(=O)[C@H](C)NC(=O)[C@@H](CC(C)C)N(C)C(=O)[C@@H]2CCCN2C(=O)[C@H]2CCCN2C(=O)[C@H](C)N(C)C(=O)[C@H]2CCCN2C(=O)[C@@H](CC(C)C)NC1=O [Design D10.35, Llp*ApP*LA*lV] (cyclo([dNMeL]A[dNMeL]VL[dL][dP][NMeA][dP]P))	0.279	
CC(C)C[C@@H]1NC(=O)[C@H](C)NC(=O)[C@@H]2CCCN2C(=O)[C@H]2CCCN2C(=O)[C@H](Cc2ccccc2)NC(=O)[C@H]2CCCN2C(=O)[C@@H](Cc2ccccc2)N(C)C(=O)[C@@H]2CCCN2C(=O)[C@@H](C)NC(=O)[C@H](CC(C)C)NC1=O [Design D10.49, aP*fpFpPALL] (cyclo(ALL[dA]P[dNMeF][dP]F[dP]P))	0.17	
